Measured values taken from PubChem BioAssay AID1259407 (Chemical Carcinogenesis Research Information System (CCRIS), 2018).
Calls of active or inactive are those of the source. No rule for the calls is given here.

Tested on: CCRIS mutagenicity, Ames/micronucleus/aberration tests
Assay: CCRIS mutagenicity studies
[1] = Test System: AMES SALMONELLA TYPHIMURIUM, Strain/Indicator: TA98, Metabolic Activation: NONE, Method: PREINCUBATION
[2] = Test System: AMES SALMONELLA TYPHIMURIUM, Strain/Indicator: TA100, Metabolic Activation: NONE, Method: PREINCUBATION

For `Cc1ccc2cc3ccc4ccccc4c3nc2c1`, the mutagenic call (Test System: AMES SALMONELLA TYPHIMURIUM, Strain/Indicator: TA97A, Metabolic Activation: NONE, Method: PREINCUBATION) was “inactive; negative”, the mutagenic call [1] was “inactive; negative” and the mutagenic call [2] was “active; positive”. For the same compound, the mutagenic call (Test System: AMES SALMONELLA TYPHIMURIUM, Strain/Indicator: TA102, Metabolic Activation: NONE, Method: PREINCUBATION) was “inactive; negative”.

`Cc1cnc2ccc3c(nc(NO)n3C)c2n1` was tested, and the mutagenic call (Test System: AMES SALMONELLA TYPHIMURIUM, Strain/Indicator: TA98, Metabolic Activation: NONE, Method: STANDARD PLATE) was “active; positive”.

With `O=[N+]([O-])c1c(Cl)c(Cl)cc(Cl)c1Cl` the mutagenic call (End Point: IN VITRO CHROMOSOMAL ABERRATIONS, Test System: CHINESE HAMSTER OVARY CELLS, Metabolic Activation: NONE) was “inactive; negative”, the mutagenic call (End Point: IN VITRO CHROMOSOMAL ABERRATIONS, Test System: CHINESE HAMSTER OVARY CELLS, Metabolic Activation: RAT, LIVER, S-9, AROCLOR 1254) was “inactive; negative” and the mutagenic call (Test System: AMES SALMONELLA TYPHIMURIUM, Strain/Indicator: TA98, Metabolic Activation: HAMSTER, LIVER, S-9, AROCLOR 1254, Method: PREINCUBATION) was “inactive; negative”. For the same compound, the mutagenic call [1] was “inactive; negative”, the mutagenic call (Test System: AMES SALMONELLA TYPHIMURIUM, Strain/Indicator: TA98, Metabolic Activation: RAT, LIVER, S-9, AROCLOR 1254, Method: PREINCUBATION) was “inactive; negative” and the mutagenic call (Test System: AMES SALMONELLA TYPHIMURIUM, Strain/Indicator: TA100, Metabolic Activation: HAMSTER, LIVER, S-9, AROCLOR 1254, Method: PREINCUBATION) was “inactive; negative”. The mutagenic call [2] was “inactive; negative”, the mutagenic call (Test System: AMES SALMONELLA TYPHIMURIUM, Strain/Indicator: TA100, Metabolic Activation: RAT, LIVER, S-9, AROCLOR 1254, Method: PREINCUBATION) was “inactive; negative” and the mutagenic call (Test System: AMES SALMONELLA TYPHIMURIUM, Strain/Indicator: TA1535, Metabolic Activation: HAMSTER, LIVER, S-9, AROCLOR 1254, Method: PREINCUBATION) was “inactive; negative”. For the same compound, the mutagenic call (Test System: AMES SALMONELLA TYPHIMURIUM, Strain/Indicator: TA1535, Metabolic Activation: NONE, Method: PREINCUBATION) was “inactive; negative”, the mutagenic call (Test System: AMES SALMONELLA TYPHIMURIUM, Strain/Indicator: TA1535, Metabolic Activation: RAT, LIVER, S-9, AROCLOR 1254, Method: PREINCUBATION) was “inactive; negative” and the mutagenic call (Test System: AMES SALMONELLA TYPHIMURIUM, Strain/Indicator: TA1537, Metabolic Activation: HAMSTER, LIVER, S-9, AROCLOR 1254, Method: PREINCUBATION) was “inactive; negative”. The mutagenic call (Test System: AMES SALMONELLA TYPHIMURIUM, Strain/Indicator: TA1537, Metabolic Activation: NONE, Method: PREINCUBATION) was “inactive; negative” and the mutagenic call (Test System: AMES SALMONELLA TYPHIMURIUM, Strain/Indicator: TA1537, Metabolic Activation: RAT, LIVER, S-9, AROCLOR 1254, Method: PREINCUBATION) was “inactive; negative”.

For `CC(C)[C@@](O)(C(=O)OCC1=CCN2CC[C@@H](O)[C@@H]12)[C@H](C)O`, the mutagenic call (Test System: AMES SALMONELLA TYPHIMURIUM, Strain/Indicator: TA100, Metabolic Activation: HAMSTER, LIVER, S-9, PCB, Method: PREINCUBATION) was “inactive; negative” and the mutagenic call (Test System: AMES SALMONELLA TYPHIMURIUM, Strain/Indicator: TA100, Metabolic Activation: RAT, LIVER, S-9, PCB, Method: PREINCUBATION) was “inactive; negative”.

`Cc1c2cc(CO)ccc2nc2c1c1c(c3ccccc32)O1` was tested, and the mutagenic call (Test System: AMES SALMONELLA TYPHIMURIUM, Strain/Indicator: TA100, Metabolic Activation: NONE, Method: STANDARD PLATE) was “inactive; negative”.

With `OCCCCCl` the mutagenic call [1] was “inactive; negative”, the mutagenic call [2] was “active; positive” and the mutagenic call (Test System: AMES SALMONELLA TYPHIMURIUM, Strain/Indicator: TA100, Metabolic Activation: RAT, LIVER, S-9, KANECHLOR 500, Method: PREINCUBATION) was “active; positive”.
